Some results are limits rather than exact numbers.

Chain of DNA dC->dU-editing enzyme APOBEC-3A (P31941 whole entry): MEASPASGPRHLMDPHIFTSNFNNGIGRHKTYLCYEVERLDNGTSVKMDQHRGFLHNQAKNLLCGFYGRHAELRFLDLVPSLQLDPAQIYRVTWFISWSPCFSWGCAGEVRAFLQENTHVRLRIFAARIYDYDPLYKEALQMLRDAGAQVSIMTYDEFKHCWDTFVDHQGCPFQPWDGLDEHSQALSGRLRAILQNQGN

The experiment concerns the target DNA dC->dU-editing enzyme APOBEC-3A (Homo sapiens, UniProt P31941). In words: APOBEC3A DNA deaminase inhibitors, dose response, biochemical (AID 504722). Particulars: 25 °C.
Usually IC50 stands for the midpoint of a concentration-inhibition curve. A high value points to weaker potency in that assay. Consider `COc1ccc(-n2c(O)cc(Sc3nnc(-c4ccccc4)[nH]3)c2O)cc1` [1-(4-methoxyphenyl)-3-[(5-phenyl-1H-1,2,4-triazol-3-yl)thio]pyrrolidine-2,5-dione], for which the half-inhibitory concentration (IC50) was over 100 µM.

For `CCOc1ccc(-n2c(O)cc(Sc3nnc(-c4ccccc4)[nH]3)c2O)cc1` [MLS000765380], the IC50 is over 100 µM.

Molecule `OCC12C=CC(O1)c1c2c(O)n(-c2ccccc2-c2ccccc2)c1O` (stereo not drawn) [7-(hydroxymethyl)-2-(2-phenylphenyl)-4,7a-dihydro-3aH-octahydro-1H-4,7-epoxyisoindole-1,3-dione] came in with an IC50 of over 100 µM.

The record behind these values is BindingDB's records for doi:10.7270/Q2CZ35ND (Burnham Center For Chemical Genomics, 2011).
